Laboratory results as given in US20220280468A1, “METHOD FOR PREVENTING OCCURRENCE OF CARDIOVASCULAR EVENT IN MULTIPLE RISK PATIENT” (MOCHIDA PHARMACEUTICAL CO., LTD., priority 2006, published 2022).

Key:
[1] = test system: cardiac events and serum lipids in hyperlipidemia patients; conditions: cited from earlier work
[2] = test system: cardiovascular events in hypercholesterolemia patients; experiment: JELIS partial analysis: occurrence of cardiovascular events in primary prevention hypercholesterolemia patients by risk factors; format: in vivo, human; conditions: for Incidence in the EPA-E group (cases of occurrence/all cases) / Incidence in the EPA-E group (%): with HMG-CoA RI base drug; for Rate of suppression of cardiovascular event occurrence after correcting the dispersion between groups: end of trial
Source text: This trial corresponds to a partial analysis of the results obtained in JELIS (Japan EPA Lipid Intervention Study) which is a large scale clinical trial of high purity EPA preparation which was presented in The […] 2005 Annual Meeting (for general information on JELIS, see Medical Tribune, issue of Nov. 17, 2005, Feature article 3, pp. 75-76).
More specifically, for the EPA-E group (7503 cases) and the control group (7478 cases) evaluated for the primary prevention effect in the 18,645 subject patients of the JELIS trial (EPA-E group (9,326 cases) and control group (9,319 cases)), occurrence of the cardiovascular events was observed and analysed for 5 years from the start of the administration in relation to the number of risk factors at the registration as defined by the following (1) to (4): • (1) obesity: body mass index (BMI) of at least 25; • (2) hypertension or prehypertension: systolic blood pressure (SBP) of at least 140 mmHg or diastolic blood pressure (DBP) of at least 90 mmHg; • (3) diabetes, prediabetes, or abnormal glucose tolerance: fasting blood glucose (FBS) of at least 126 mg/dL or hemoglobin Alc (HbAlc) of at least 6.5%; • (4) hypertriglyceridemia or low HDL cholesterolemia: a triglyceride (TG) of at least 150 mg/dL or a HDL-C of less than 40 mg/dL.
The EPA-E group was orally administered with Epadel (Mochida Pharmaceutical Co., Ltd.) typically at an adult dose of 600 mg per administration and 3 times a day after the meal. However, in the case of abnormal serum TG, the dose could be increased to 900 mg per administration and 3 times a day. In both groups, pravastatin sodium (Mevalotin™ tablets and fine granules, Daiichi Sankyo Co., Ltd.), simvastatin (Lipovas™ tablets, Banyu Pharmaceutical Co., Ltd.), or atorvastatin calcium hydrate (Lipitor™ tablets, Astellas Pharma Inc. and Pfizer Inc.) was used for the base drug, and these drugs were orally administered according to the prescribed dosage regimen. More specifically, pravastatin sodium was orally administered at a daily dose of 10 to 20 mg in a single dose or two divided doses; simvastatin was orally administered at a daily dose of 5 to 20 mg in a single dose; atorvastatin calcium hydrate was orally administered at a daily dose of 10 to 40 mg in a single dose.
The number of occurrence of cardiovascular events in the observation period of 5 years, incidence (%), and rate of suppression of the incidence of the cardiovascular events in the EPA-E group with respect to the control group are shown in Table 1 for each number of risk factors. The rate of suppression of the incidence of the cardiovascular events was calculated by the formula: [{(incidence in the control group)−(incidence in the EPA-E group)}/incidence in the control group]×100.
From the results of the trial as described above, the number of occurrence of cardiovascular events in the observation period of 5 years, incidence (%), and rate of suppression of the incidence of the cardiovascular events in the EPA-E group with respect to the control group were calculated for the male patients having at least two risk factors. (The calculation was conducted by the same procedure as described above.)
(The calculation was conducted by the same procedure as described above.)

[3] = EPA-E group (with HMG-CoA RI), Non-Patent Document 3
[4] = 1-2 risk factors, 5 years observation
[5] = 1-3 risk factors, 5 years observation
[6] = 1-4 risk factors, 5 years observation
[7] = 1 risk factor, 5 years observation
[8] = 2-3 risk factors, 5 years observation
[9] = 2-4 risk factors, 5 years observation
[10] = 2 risk factors, 5 years observation
[11] = 3-4 risk factors, 5 years observation
[12] = 3 risk factors, 5 years observation
[13] = TG of at least 150 mg/dL and HDL-C of less than 40 mg/dL
[14] = male patients with two or more risk factors
[15] = male patients, 2-4 risk factors, 5 years observation
[16] = patients with TG of at least 150 mg/dL and HDL-C of less than 40 mg/dL, 5 years

## CC/C=C\C/C=C\C/C=C\C/C=C\C/C=C\CCCC(=O)OCC [EPA-E, ethyl icosapentate]
[1]; EPA-E group (with HMG-CoA RI), Non-Patent Document 2
  Change of HDL-cholesterol value: slight
[1]; [3]
  Change in HDL-C: little change
  Decrease of LDL-cholesterol: 25%
  Decrease of total cholesterol: 19%
[1]; EPA-E group (with HMG-CoA RI), after 5 years, Non-Patent Document 2
  Reduction of LDL-cholesterol value: 26%
[1]; EPA-E group (with HMG-CoA RI), significant, Non-Patent Document 3
  Decrease of triglyceride: 9%
[1]; analysis limited to the primary prevention patients
  Incidence of events vs control group (in words): this difference was not statistically significant
[1]; total of primary and secondary prevention patients, and secondary prevention patients
  Suppression of cardiac events (in words): statistically significant suppression
[2]; 0 risk factors, 5 years
  Rate of Suppression of cardiovascular event incidence vs control group: 22%
[2]; 0 risk factors, 5 years observation
  Incidence in the EPA-E group (cases of occurrence/all cases): 11/1326
[2]; 1-2 risk factors, 5 years
  Rate of Suppression of cardiovascular event incidence vs control group: 21%
[2]; [4]
  Incidence in the EPA-E group (%): (1.3) %
  Incidence in the EPA-E group (cases of occurrence/all cases): 59/4706
[2]; 1-3 risk factors, 5 years
  Rate of Suppression of cardiovascular event incidence vs control group: 18%
[2]; [5]
  Incidence in the EPA-E group (%): (1.5) %
  Incidence in the EPA-E group (cases of occurrence/all cases): 87/5935
[2]; 1-4 risk factors, 5 years
  Rate of Suppression of cardiovascular event incidence vs control group: 18%
[2]; [6]
  Incidence in the EPA-E group (%): (1.5) %
  Incidence in the EPA-E group (cases of occurrence/all cases): 93/6177
[2]; 1 risk factor, 5 years
  Rate of Suppression of cardiovascular event incidence vs control group: 15%
[2]; [7]
  Incidence in the EPA-E group (%): (1.0) %
  Incidence in the EPA-E group (cases of occurrence/all cases): 25/2468
[2]; 2-3 risk factors, 5 years
  Rate of Suppression of cardiovascular event incidence vs control group: 16%
[2]; [8]
  Incidence in the EPA-E group (%): (1.8) %
  Incidence in the EPA-E group (cases of occurrence/all cases): 62/3467
[2]; 2-4 risk factors, 5 years
  Rate of Suppression of cardiovascular event incidence vs control group: 18%
[2]; [9]
  Incidence in the EPA-E group (%): (1.8) %
  Incidence in the EPA-E group (cases of occurrence/all cases): 68/3709
[2]; 2 risk factors, 5 years
  Rate of Suppression of cardiovascular event incidence vs control group: 23%
[2]; [10]
  Incidence in the EPA-E group (%): (1.5) %
  Incidence in the EPA-E group (cases of occurrence/all cases): 34/2238
[2]; 3-4 risk factors, 5 years
  Rate of Suppression of cardiovascular event incidence vs control group: 14%
[2]; [11]
  Incidence in the EPA-E group (%): (2.3) %
  Incidence in the EPA-E group (cases of occurrence/all cases): 34/1471
[2]; 3 risk factors, 5 years
  Rate of Suppression of cardiovascular event incidence vs control group: 5%
[2]; [12]
  Incidence in the EPA-E group (%): (2.3) %
  Incidence in the EPA-E group (cases of occurrence/all cases): 28/1229
[2]; 4 risk factors, 5 years
  Rate of Suppression of cardiovascular event incidence vs control group: 40%
[2]; 4 risk factors, 5 years observation
  Incidence in the EPA-E group (cases of occurrence/all cases): 6/242
[2]; [13]
  Effect on occurrence of cardiovascular events (in words): significantly suppressed occurrence of cardiovascular events
  Occurrence of fatal events in the EPA-E group: occurrence of fatal events was not found
  Time from start of administration after which decrease in cardiovascular event incidence was significant: ≥ 2 years
[2]; TG of at least 150 mg/dL and HDL-C of less than 40 mg/dL, FIG. 2
  Rate of suppression of cardiovascular event occurrence after correcting the dispersion between groups: 53%
[2]; [14]
  Effect on occurrence of cardiovascular events (in words): significantly suppressed the occurrence of cardiovascular events
  Time from start of administration after which decrease in cardiovascular event incidence was significant: ≥ 2 years
[2]; male patients with two or more risk factors, FIG. 1
  Rate of suppression of cardiovascular event occurrence after correcting the dispersion between groups: 55%
[2]; [15]
  Incidence in the EPA-E group (%): (1.8) %
  Incidence in the EPA-E group (cases of occurrence/all cases): 19/1065
[2]; male patients, 2-4 risk factors, 5 years, uncorrected
  Rate of Suppression of cardiovascular event incidence vs control group: 56%
[2]; patients with HDL-C of less than 40 mg/dL, uncorrected
  Suppression of occurrence of cardiovascular events vs control group: 35%
[2]; patients with TG of at least 150 mg/dL and HDL-C of less than 40 mg/dL, 5 years, uncorrected
  Rate of Suppression of cardiovascular event incidence vs control group: 48%
[2]; [16]
  Incidence in the EPA-E group (%): (2.3) %
  Incidence in the EPA-E group (cases of occurrence/all cases): 11/482
[2]; patients with triglyceride of at least 150 mg/dL, uncorrected
  Suppression of occurrence of cardiovascular events vs control group: 15%
